Measurements published in US20200190592A1, “PME-1 AS A BIOMARKER TO PREDICT AND DIAGNOSE AN INCREASED RISK OF ENDOMETRIAL CANCER AND GENE SILENCING OF PME-1 TO INHIBIT EPITHELIAL TO MESENCHYMAL TRANSITION” (Medical Diagnostic Laboratories, L.L.C., priority 2018, published 2020).

What was measured:
Type in all cases: cell-based, human
ECC-1 cells = assay: Foci formation analysis in ECC-1 cells; conditions: 10 days
Experimental: We performed a foci formation analysis by transfecting (i) empty FLAG vector, (ii) FLAG-PPP2CA, (iii) FLAG-PPP4C, or (iv) FLAG-PPP6C into ECC-1 cells that stably expressed either (i) shSCR (non-targeting shRNA, black bars) or (ii) shPPME1 (depletes PME-1 levels, white bars) (FIG. 24).
1,000 cells were plated in a six well tissue culture dish in selection media (to include 5 μg/ml puromycin) (InvivoGen). Cells were allowed to adhere and grow in a 5% CO2, 37° C. incubator for 10 to 14 days. Media was replaced every fourth day. Cells were stained with 1% crystal violet (Sigma Aldrich) for five minutes and rinsed with PBS. Colonies were counted and data is presented as the percentage of change compared to the control. All Experiments were repeated at least three times.

PP2A = PP2A phosphatase assay on RL95-2 whole cell extract; conditions: RL95-2 cells, 500 μg whole cell extract, vs non-targeting control
Experimental: Because PME-1 is a known inhibitor of PP2A, we confirmed in this study that depletion of PME-1 by siRNA led to an increase in PP2A activity in cells. To do so, we treated RL95-2 cells with either non-targeting siRNA (Control) or siRNA against PPME1. PP2A activity was monitored using a phosphatase assay (R&D Systems Duo IC Set phosphatase assay kit). In the phosphatase assay, we used 500 μg of whole cell extract and followed the manufacturer's recommendations.
Whole cell lysates were used with the DuoSet IC PP2A Phosphatase Assay Kit (R&D Systems). Procedure was carried out as per kit instructions with 500 μg protein and the absorbance was measured at 620 nm. The assay was repeated twice with similar results.

RL95-2 cells [1] = assay: Immunofluorescence for phosphorylated histone H3 (mitotic cells); conditions: −PME-1 cells compared to control cells
Experimental: Endometrial cancer cells were stained for phosphorylated histone H3 on serine 10, a marker of mitotic cells, followed by counterstaining with DAPI (FIG. 12) to identify all cells.
For analysis of patient samples, tissues were blocked for 2 hr with 10% FBS in TBST for at RT, incubated with each primary antibody (together) overnight at 4° C., washed three times for 15 min in TBST, incubated with each secondary fluorescent antibody (together) for 1 hr at RT, washed again as above, stained with DAPI and mounted with cover-slips using vectashield mounting media (Vector Labs). Primary antibodies used were for PME-1 (Santa Cruz), E-cadherin (Millipore), and vimentin (Genscript). 1×10^3RL95-2 cells were plated on a chamber slide and were incubated overnight at 37° C. Slides were fixed with 4% paraformaldehyde (PFA) on ice for two hours. The cells were incubated with the primary antibody to Histone 3 (pH3) phosphorylated at Ser10 (1:200, Cell Signaling Technologies) overnight and developed with the secondary anti-rabbit Alexa-Fluor 555 antibody (Cell Signaling Technologies). DAPI was used as a nuclear counter-stain (Sigma Aldrich). Images were taken with the Nikon Eclipse TE2000 at 20×.

RL95-2 cells [2] = assay: Colony forming / invasive growth assay in Matrigel; conditions: RL95-2 in Matrigel
Experimental: To determine if PME-1 contributes to the more invasive and metastatic phenotypes, we performed a colony forming assay in matrigel.
The 3D On Top Matrigel Assay was completed in 24 well dishes as described previously {Lee, 2007 #1577}. Briefly, the bottoms of 24 well dishes were coated with 50 μl BD Matrigel Basement Matrix Phenol Red Free (BD Biosciences cat. #356237) and allowed to solidify at 37° C. 10^5 cells were suspended in 250 μl chilled medium containing either 10 ng/ml of TGF-b or vehicle and allowed to settle at 37° C. for 30 minutes. Chilled medium containing 10% of Matrigel was added by pipetting gently down the sidewall of the well and incubated at 37° C. for ten days changing top medium every second day. Colony counts were performed on the tenth day, averages were taken from three fields of view using a 10× objective. Experiment was repeated three times.

β-catenin = assay: Western analysis of β-catenin in RL95-2 cells
From the text: We performed Western blot analysis in RL95-2 cells that were expressing empty vector (Control), over-expressing PME-1 (+PME-1) or expressing shRNA against PME-1 (−PME-1) to examine the protein stability of β-catenin (FIG. 19A). We observed a decrease in total β-catenin protein in cells that were over-expressing PME-1. This observation is correlated with the predicted ubiquitylation of β-catenin and its degradation. Conversely, a depletion of PME-1 led to stabilization of total β-catenin (FIG. 19A).
In another series of study, we performed a similar assay in which cells were treated with 10 μM MG-132 prior to protein extraction. MG-132 is a proteasome inhibitor and therefore allows for the accumulation of phosphorylated β-catenin, which is normally quickly degraded, to be detected by western analysis.
15 μg of protein was used for western analysis. PME-1 antibody (Santa Cruz) and COXIV (Cell Signaling Technologies) were used for detection of proteins and the blots were developed using chemiluminescence (Pierce ECL Western Blotting Substrate—Thermo Scientific) on the GE ImageQuant LAS 4000. For analysis of Akt, ERK, and β-catenin signaling in tissue culture, western analyses were completed as follows. RL95-2 cells stably infected with lentivirus expressing constructs were selected with puromycin (Invivogen). […]

## shPPME1 no. 2: shRNA targeting PPME1, SEQ ID NO: 2: GCAGCGATTATTAGTAGAGTT, bp 289-309; used for all subsequent experiments (guide GCAGCGATTATTAGTAGAGTT; listed as Homo sapiens)
ECC-1 cells; ECC-1, empty FLAG vector, vs shSCR control
  foci formation: significant decrease
ECC-1 cells; ECC-1 transfected with PP2A, PP4 or PP6, vs shSCR
  foci formation: significant decrease
PP2A
  increase in PP2A activity: 30 fold
RL95-2 cells [1]
  decreased proliferation (phospho-histone H3 positive cells): ~30%
RL95-2 cells [2]; 10 days, vs control cells
  decrease in colony formation: 50%
RL95-2 cells [2]; −TGF-β, compared to control cells
  colonies number and size: fewer and smaller colonies
β-catenin; absence of MG-132
  total β-catenin: stabilization
β-catenin; cells treated with 10 μM MG-132, compared to control cells
  phosphorylated β-catenin: did not lead to an increase
